Like-named read-outs stand apart in the source and are kept apart here.
Experiments:
CYP2C9 = biological target: T1, CYP2C9 (Homo sapiens, UniProt P11712); type: in vitro ADME; details: microsomes
T1 construct: HLM were prepared from liver tissue as described in the literature [13]; from tissue; host or cells: human liver microsomes prepared from an autopsy liver sample (person)

[1] = system: human leukemia K562 (K562/S) cell line; assay: MTT cytotoxicity assay, doxorubicin-sensitive K562
Protocol: Both doxorubicin-resistant (K562/R) and -sensitive K562 (K562/S) cell sublines, purchased from Tianjin Instute of Hematopathy, the Chinese Academy of Medical Sciences, China, were cultured in PRMI1640 (Gibco, USA) medium and supplemented with 10 fetal bovine serums at 37° C. in a humidified incubator with 5% CO2. MTT assay was performed using a reported method [12]. Cell lines were seeded into 96-well plates at 6000 viable cells per well. The test chemicals (ADR, DMSO, Th1 and Th2) with different concentrations were loaded in a final volume of 200 μL per well. After 44 hours of incubation, MTT (5 g/L) was added to each well in a volume of 10 μl and incubated for 4 hours. Afterwards, the medium was removed and 200 μl of Me2SO (37° C.) was added and shaken for 5 minutes. A 96-well microtiter plate reader was used to determine absorbance values at 570 nm. Mean value of each concentration (n=3 wells) was obtained. Absorbance of untreated controls was taken as 100%. Survival rate was calculated as follows: Cell survival rate (%)=(T−B)/(U−B)×100%, T (treated) is absorbance of chemically treated cells, U (untreated) is the absorbance of untreated cells, and B (blank) is the absorbance when neither cells nor chemicals was added.

[2] = system: human cytochrome P-450 enzymes (1A2, 2A6, 2D6, 2E1, 3A4); assay: CYP inhibition in human liver microsomes, five isoforms other than CYP2C9; type: in vitro ADME; details: probe reactions
[3] = system: doxorubicin-resistant K562 (K562/R) cell line; assay: MTT cytotoxicity assay, doxorubicin-resistant K562; type: cell-based, human; details: read-out: Cytotoxicity IC50 against K562/R
Protocol: MTT assay was performed using a reported method. […] Absorbance of untreated controls was taken as 100%. […] An aliquot of the supernatant was analyzed by HPLC.

[4] = system: doxorubicin-resistant K562 (K562/R) cell line
Protocol: (§1) Cytotoxicity Assay: Both epimers were tested for their cytotoxicities against human leukemia K562 (K562/S) and doxorubicin-resistant K562 (K562/R) cell lines, using the SRB method previously described with doxorubicin being the positive control. The OD data were recorded in X±S, and the IC50 values were calculated with sigmoidal plot.

[5] = system: human leukemia K562 (K562/S) cell line
Protocol: as §1

[6] = system: human leukemia K562 (K562/S) cell line; assay: SRB cytotoxicity assay, K562/S; details: K562, read-out: Cytotoxicity IC50 against K562/S
Protocol: as §1

[7] = system: doxorubicin-resistant K562 (K562/R) cell line; assay: SRB cytotoxicity assay, doxorubicin-resistant K562; details: Homo sapiens, K-562R, read-out: Cytotoxicity IC50 against K562/R
Protocol: as §1

[8] = Homo sapiens, K562, read-out: Cytotoxicity IC50 against K562/S

T1 sequence (P11712 whole entry): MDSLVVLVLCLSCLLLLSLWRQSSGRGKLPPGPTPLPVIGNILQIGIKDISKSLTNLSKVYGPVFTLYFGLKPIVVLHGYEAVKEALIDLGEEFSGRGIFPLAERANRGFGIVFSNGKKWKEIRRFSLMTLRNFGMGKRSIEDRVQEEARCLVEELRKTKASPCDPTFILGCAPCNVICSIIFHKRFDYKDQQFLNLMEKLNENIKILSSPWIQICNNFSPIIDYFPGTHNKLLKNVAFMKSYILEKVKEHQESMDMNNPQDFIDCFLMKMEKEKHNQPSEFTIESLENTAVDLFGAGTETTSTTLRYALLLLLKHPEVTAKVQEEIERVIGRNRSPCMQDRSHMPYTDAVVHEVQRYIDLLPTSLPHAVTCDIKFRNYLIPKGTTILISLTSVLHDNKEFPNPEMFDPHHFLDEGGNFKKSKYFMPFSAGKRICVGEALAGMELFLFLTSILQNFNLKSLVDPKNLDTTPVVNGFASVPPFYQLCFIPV

Molecule	Inhibitory effect toward five human cytochrome P-450 enzymes other than CYP2C9 [2]	IC50 [4] [µM]	IC50 [5] [µM]	IC50 [1, 8] [µM]	further results
CC(C)=CCCC1(C)C=Cc2c(O)c3c(c(CC=C(C)C)c2O1)OC12C(=CC4CC1C(C)(C)OC2(CC=C(C)C(=O)O)C4=O)C3=O (single isomer, unassigned; epimer 2) [Epimer 2, epigambogic acid]	little inhibitory effects				CYP2C9 inhibitory effect, S-epimer relative to R-epimer (CYP2C9): 20 folds; IC50 ([1]; read-out: Cytotoxicity IC50 against K562/S, K562/S, Example 1 MTT assay, Table 4 columns marked ^a): 0.86 µM; IC50 ([3]; doxorubicin-resistant K562/R, Example 1 MTT assay, Table 4 columns marked ^a): 1.11 µM
30-hydroxygambogic acid [compound 1]		2.89 ± 0.35	1.27 ± 0.15		
CC(C)=CCC[C@]1(C)C=Cc2c(O)c3c(c(CC=C(C)C)c2O1)O[C@]12C(=C[C@@H]4C[C@H]1C(C)(C)O[C@@]2(C/C=C(/C)C(=O)O)C4=O)C3=O (single isomer, unassigned) [Epimer 1, gambogic acid]	little inhibitory effects			0.89	IC50 ([3]; Homo sapiens, K-562R): 1.32 µM
30-hydroxyepigambogic acid [compound 2]		4.49 ± 0.31	3.61 ± 0.17		
COc1cccc2c1C(=O)c1c(O)c3c(c(O)c1C2=O)C[C@@](O)(C(=O)CO)C[C@@H]3O[C@H]1C[C@H](N)[C@H](O)[C@H](C)O1 [Doxorubicin, doxorubicin, reference compound]				0.66	IC50 [6]: 0.11 ± 0.01 µM; IC50 [7]: 1.79 ± 0.17 µM; IC50 ([3]; Homo sapiens, K-562R, doxorubicin-resistant K562/R, Example 1 MTT assay, Table 4 columns marked ^a): 10.8 µM

— patent US7592367B2, “Compounds from Garcinia hanburyi, their use in treating cancer and method of separating epimers thereof” (priority 2005, dated 2009)
